Source: patent US20120202690A1, “HERBICIDAL COMPOUNDS” (SYNGENTA LIMITED, priority 2009, published 2012)

Key:
Assay type in all cases: in vivo
[1] = system: Solanum nigrum (SOLNI); experiment: Pre-emergence biological efficacy, glasshouse, 1000 g/ha, evaluated after 13 days (100=total damage to plant; 0=no damage to plant); conditions: rate 1,000 g/ha; for pest or weed control at 1000 g/ha: Solanum nigrum, 312 h, read-out: Percentage damage caused to weed species, pre-emergence, SOLNI
Method in brief: (§1)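 Test species are sown into pots of standard soil. Plants then grow in the glasshouse under controlled conditions (24/16° C. day/night, 14 hours light, 65% humidity) and receive water twice a day.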

[2] = system: Ipomoea hederaceae (IPOHE); experiment: as above; conditions: rate 1,000 g/ha; for pest or weed control at 1000 g/ha: Ipomoea, 312 h, read-out: Percentage damage caused to weed species, pre-emergence, IPOHE
Method in brief: as §1

[3] = system: Setaria faberi (SETFA); experiment: as above; conditions: rate 1,000 g/ha; for pest or weed control at 1000 g/ha: Setaria faberi, 312 h, read-out: Percentage damage caused to weed species, pre-emergence, SETFA
Method in brief: as §1

[4] = system: Amaranthus retroflexus (AMARE); experiment: as above; conditions: rate 1,000 g/ha; for pest or weed control at 1000 g/ha: Amaranthus retroflexus, 312 h, read-out: Percentage damage caused to weed species, pre-emergence, AMARE
Method in brief: as §1

[5] = system: Alopecurus myosuroides (ALOMY); experiment: as above; conditions: rate 1,000 g/ha; for pest or weed control at 1000 g/ha: Alopecurus myosuroides, 312 h, read-out: Percentage damage caused to weed species, pre-emergence, ALOMY
Method in brief: as §1

[6] = system: Echinochloa crus-galli (ECHCG); experiment: as above; conditions: rate 1,000 g/ha; for pest or weed control at 1000 g/ha: Echinochloa crus-galli, 312 h, read-out: Percentage damage caused to weed species, pre-emergence, ECHCG
Method in brief: as §1

[7] = system: Solanum nigrum (SOLNI); experiment: Post-emergence biological efficacy, glasshouse, 500 or 1000 g/ha, evaluated after 13 days (100=total damage to plant; 0=no damage to plant); conditions: rate 1,000 g/ha; for pest or weed control at 1000 g/ha: Solanum nigrum, 312 h, read-out: Percentage damage caused to weed species, post-emergence, SOLNI
Method in brief: (§2)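 Sow seeds in standard potting soil. Treat after emergence. Keep treated plants in the glasshouse at 24° C. by day and 16° C. by night, with a 14-hour photoperiod, 65% humidity and two waterings daily.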

[8] = system: Ipomoea hederaceae (IPOHE); experiment: as above; conditions: rate 1,000 g/ha; for pest or weed control at 1000 g/ha: Ipomoea, 312 h, read-out: Percentage damage caused to weed species, post-emergence, IPOHE
Method in brief: as §2

[9] = system: Setaria faberi (SETFA); experiment: as above; conditions: rate 1,000 g/ha; for pest or weed control at 1000 g/ha: Setaria faberi, 312 h, read-out: Percentage damage caused to weed species, post-emergence, SETFA
Method in brief: as §2

[10] = system: Amaranthus retroflexus (AMARE); experiment: as above; conditions: rate 1,000 g/ha; for pest or weed control at 1000 g/ha: Amaranthus retroflexus, 312 h, read-out: Percentage damage caused to weed species, post-emergence, AMARE
Method in brief: as §2

[11] = system: Alopecurus myosuroides (ALOMY); experiment: as above; conditions: rate 1,000 g/ha; for pest or weed control at 1000 g/ha: Alopecurus myosuroides, 312 h, read-out: Percentage damage caused to weed species, post-emergence, ALOMY
Method in brief: as §2

[12] = system: Echinochloa crusgaffi (ECHCG); experiment: as above; conditions: rate 1,000 g/ha; for pest or weed control at 1000 g/ha: Echinochloa, 312 h, read-out: Percentage damage caused to weed species, post-emergence, ECHCG
Method in brief: as §2

Molecule `Cc1cc2c(C(=O)O)nc(-c3ccc(Cl)c(F)c3)nc2n1Cc1ccco1` [Compound 11-21, 4-Carboxy-2-(4-chloro-3-fluorophenyl)-7-(2-furanyl-methyl)-6-methyl-7H-pyrrolo[2,3-d]pyrimidine] has a pest or weed control at 1000 g/ha [1] of 0%, a pest or weed control at 1000 g/ha [2] of 0% and a pest or weed control at 1000 g/ha [3] of 0%. The pest or weed control at 1000 g/ha [4] was 0%, the pest or weed control at 1000 g/ha [5] was 0% and the pest or weed control at 1000 g/ha [6] was 0%. It also gave a pest or weed control at 1000 g/ha [7] of 50%, a pest or weed control at 1000 g/ha [8] of 20% and a pest or weed control at 1000 g/ha [9] of 0%. For the same molecule, the pest or weed control at 1000 g/ha [10] was 0%, the pest or weed control at 1000 g/ha [11] was 0% and the pest or weed control at 1000 g/ha [12] was 0%.

`COC(=O)c1nc(-c2ccc(Cl)c(OC)c2F)nc2c1NCCN2Cc1ccccc1` [Compound 95-162, 8-benzyl-2-(4-chloro-2-fluoro-3-methoxyphenyl)-4-methoxycarbonyl-5,6,7,8-tetrahydropteridine] was tested, and the pest or weed control at 1000 g/ha [1] was 0%, the pest or weed control at 1000 g/ha [2] was 40% and the pest or weed control at 1000 g/ha [3] was 0%. It also gave a pest or weed control at 1000 g/ha [4] of 0%, a pest or weed control at 1000 g/ha [5] of 10% and a pest or weed control at 1000 g/ha [6] of 0%. For the same molecule, the pest or weed control at 1000 g/ha [7] was 40%, the pest or weed control at 1000 g/ha [8] was 30% and the pest or weed control at 1000 g/ha [9] was 0%. The pest or weed control at 1000 g/ha [10] was 70%, the pest or weed control at 1000 g/ha [11] was 10% and the pest or weed control at 1000 g/ha [12] was 0%.

`COc1c(Cl)ccc(-c2nc(C(=O)OCc3ccco3)c3c(C)c[nH]c3n2)c1F` [Compound 1-87, 2-(4-Chloro-2-fluoro-3-methoxyphenyl)-4-(2-furanyl-methoxycarbonyl)-5-methy-7H-pyrrolo[2,3-d]pyrimidine] was tested, and the “Percentage damage caused to weed species, pre-emergence, SOLNI” value [1] was 20%, the “Percentage damage caused to weed species, pre-emergence, IPOHE” value [2] was 10% and the “Percentage damage caused to weed species, pre-emergence, SETFA” value [3] was 0%. The “Percentage damage caused to weed species, pre-emergence, AMARE” value [4] was 10%, the “Percentage damage caused to weed species, pre-emergence, ALOMY” value [5] was 0% and the “Percentage damage caused to weed species, pre-emergence, ECHCG” value [6] was 0%. The “Percentage damage caused to weed species, post-emergence, SOLNI” value [7] was 90%, the “Percentage damage caused to weed species, post-emergence, IPOHE” value [8] was 50% and the “Percentage damage caused to weed species, post-emergence, SETFA” value [9] was 10%. For the same molecule, the “Percentage damage caused to weed species, post-emergence, AMARE” value [10] was 100%, the “Percentage damage caused to weed species, post-emergence, ALOMY” value [11] was 0% and the “Percentage damage caused to weed species, post-emergence, ECHCG” value [12] was 0%.

`COCCOCCOC(=O)c1nc(-c2ccc(Cl)c(OC)c2F)cc2[nH]cc(C)c12` [Compound 22-85, 6-(4-Chloro-2-fluoro-3-methoxyphenyl)-4-{2-[(2-methoxy)-ethoxy]-ethoxycarbonyl}-3-methyl-1H-pyrrolo[3,2-c]pyridine] gave a pest or weed control at 1000 g/ha [1] of 100%, a pest or weed control at 1000 g/ha [2] of 80% and a pest or weed control at 1000 g/ha [3] of 10%. For the same molecule, the pest or weed control at 1000 g/ha [4] was 100%, the pest or weed control at 1000 g/ha [5] was 10% and the pest or weed control at 1000 g/ha [6] was 10%. It also gave a pest or weed control at 1000 g/ha [7] of 90%, a pest or weed control at 1000 g/ha [8] of 40% and a pest or weed control at 1000 g/ha [9] of 20%. The pest or weed control at 1000 g/ha [10] was 90%, the pest or weed control at 1000 g/ha [11] was 30% and the pest or weed control at 1000 g/ha [12] was 20%.

Work on `COc1c(Cl)ccc(-c2nc(C(=O)O)c3c(C)cn(S(=O)(=O)c4ccc(C)cc4)c3n2)c1F` [Compound 19-63, 4-Carboxy-2-(4-chloro-2-fluoro-3-methoxyphenyl)-5-methyl-7-(4-methylphenyl-sulphonyl)-7H-pyrrolo[2,3-d]pyrimidine] yielded a pest or weed control at 1000 g/ha [1] of 0%, a pest or weed control at 1000 g/ha [2] of 0% and a pest or weed control at 1000 g/ha [3] of 0%. It also gave a pest or weed control at 1000 g/ha [4] of 0%, a pest or weed control at 1000 g/ha [5] of 0% and a pest or weed control at 1000 g/ha [6] of 0%. For the same molecule, the pest or weed control at 1000 g/ha [7] was 70%, the pest or weed control at 1000 g/ha [8] was 60% and the pest or weed control at 1000 g/ha [9] was 0%. The pest or weed control at 1000 g/ha [10] was 50%, the pest or weed control at 1000 g/ha [11] was 0% and the pest or weed control at 1000 g/ha [12] was 0%.
